Test results taken from patent publication US6303612A, “Derivatives of hydroxyphenylsulfanylbenzoic and hydroxphenylsulfanylarylacetic acids” (Leciva, A.S., priority 1998, dated 2001).
pIC50: −log10 of the molar value. Converted amounts (≈) assume the structure as drawn. Counter-ions that a name gives are not always drawn. Like-named read-outs stand apart in the source and are kept apart here.

Experiments:
LTB4 receptor = LTB4 receptor (Cavia porcellus, UniProt H0VYV8); assay: LTB4 receptor binding study; conditions: 3H-LTB4, guinea-pig spleen membranes; for pIC50: read-out: Inh. of LTB4 rec. binding, IC50; for inhibition at 20 µM: read-out: Inh. of LTB4 rec. binding, %
Chain of LTB4 receptor (H0VYV8 1-348): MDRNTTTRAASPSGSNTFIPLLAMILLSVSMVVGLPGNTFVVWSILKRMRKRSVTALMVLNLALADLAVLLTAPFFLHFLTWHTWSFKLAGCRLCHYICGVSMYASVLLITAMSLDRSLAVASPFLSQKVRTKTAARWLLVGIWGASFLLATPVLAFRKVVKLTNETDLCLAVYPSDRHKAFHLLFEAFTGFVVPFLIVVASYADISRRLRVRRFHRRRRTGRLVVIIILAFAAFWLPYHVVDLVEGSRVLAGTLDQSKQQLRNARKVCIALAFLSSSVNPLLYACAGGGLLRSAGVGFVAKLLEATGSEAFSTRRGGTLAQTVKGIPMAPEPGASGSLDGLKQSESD
Method: LTB4 Receptor Binding Study
A slightly modified method of Cheng and coworkers (Cheng J. B. et al.: J. Pharm. Expl. Ther. 236, 126 (1986)) was used. The membrane fraction was prepared from male guinea-pig spleen; 2 mg of membranes were incubated with 0.3 nM ^3 H-LTB4 at 25° C. for 30 min in 100 μl of the incubated mixture. The nonspecific binding was determined in the presence of 0.1 μM LTB4. The membranes were filtered though Whatman GF/C paper and washed triply with buffer. The radioactivity was measured by liquid scintillation spectrometry, and the specific binding of ^3 H-LTB4 to the receptor was determined.

LTD4 receptor = biological target: T1, LTD4 receptor (Cavia porcellus, UniProt Q2NNR5); assay: LTD4 receptor binding study; conditions: 3H-LTD4, guinea-pig lung membranes; for pIC50: read-out: Inh. of LTD4 rec. binding, IC50; for inhibition at 100 µM / inhibition at 20 µM: read-out: Inh. of LTD4 rec. binding, %
T1 construct: The membrane fraction was prepared from male guinea-pig lungs; from tissue; host or cells: male guinea-pig lung membranes
T1 sequence (Q2NNR5 1-340): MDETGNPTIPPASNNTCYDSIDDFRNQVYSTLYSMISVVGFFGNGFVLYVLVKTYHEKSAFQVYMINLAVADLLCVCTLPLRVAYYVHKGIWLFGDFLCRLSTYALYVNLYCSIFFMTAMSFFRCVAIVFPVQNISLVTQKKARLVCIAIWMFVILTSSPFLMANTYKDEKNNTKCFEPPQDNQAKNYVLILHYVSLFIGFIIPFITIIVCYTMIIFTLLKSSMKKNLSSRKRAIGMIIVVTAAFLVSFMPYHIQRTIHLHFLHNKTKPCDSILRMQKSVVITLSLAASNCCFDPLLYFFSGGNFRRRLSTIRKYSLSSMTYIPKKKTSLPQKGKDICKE
Method: LTD4 Receptor Binding Study
This study was performed according to the method of Burns and coworkers (Burns R. F. et al.: Life Sci. 33, 645 (1983)). The membrane fraction was prepared from male guinea-pig lungs, and 4 mg of this fraction were incubated with 0.4 nM ^3 H-LTD4 for 60 min at 25° C. in 100 μl of the incubated mixture. The nonspecific binding was determined in the presence of 0.1 μM LTD4. The filtration of the membranes, washing, and radioactivity measurement were as above.

rats = assay: Inhibition of carrageenan-induced pleuritis in rats; format: in vivo; conditions: for inhibition in vivo at 100 mg/kg: Rattus norvegicus, po, 4 h
Method: Inhibition of Carrageenan-induced Pleuritis in Rats
(Hidaka T. J.: Pharm. Pharmacol. 38, 242 (1986) 1 ml of 0.5% carrageenan solution in saline was administered intrapleurally to experimental animals under mild ether anesthesia. Test drugs were administered in single oral dose 1 h before carrageenan injection, 4 h following the carrageenan application the rats were killed and exudate was withdrawn from opened pleural cavity. The volume of exudate, its cellularity and total cell number were determined.

male mice = assay: Inhibition of arachidonic acid-induced ear inflammation in mice; format: in vivo; conditions: Mus musculus, po, 1 h
Method: Inhibition of Arachidonic Acid-induced Ear Inflammation in Mice (Opas E. E. et al.: J. Invest. Dermatol. 84, 253 (1985) Ear inflammation was induced in male mice by 20 μl of arachidonic acid dissolved in acetone (concentration 100 mg/ml). The mice were sacrificed 1 h after application of arachidonic acid and the ears were cut off by standard means. The other, vehicle-treated ear of the same animal served as a control. The degree of ear hyperemia and the weight of ear lobes were evaluated. Test compounds were administered orally 1 h before the induction of inflammation.

[1] = test system: peroxidation of lipids from the hepatic cells membranes; assay: Antioxidant effect in vitro; format: biochemical; conditions: at 100 μg
From the text: Antioxidant Effect in vitro
The end-product, malonic dialdehyde, was transformed to coloured complex with thiobarbituric acid and determined spectrophotometrically. The antioxidant effect was expressed in % of peroxidation inhibition in the presence of the compound tested in comparison to a control sample.

[2] = test system: LTB4 production in rat polymorphonuclear cells; assay: Ex vivo inhibition of LTB4 production (LTB4 biosynthesis); format: cell-based; conditions: for Inh. of LTB4 biosynth., %: at 30 μg (%/μg); for IC50: Rattus norvegicus, read-out: Inh. of LTB4 biosynth., IC50
Method: Ex vivo Inhibition of LTB4 Production The production of LTB4 was determined in rat polymorphonuclear cells from pleural exudate elicited by heat-activated rat serum (Palmer R. M. J., Salmon J. A.: Immunology 50, 65 (1983)). The cells were stimulated with the Ca ionophore A 23187 (Sigma) and incubated with various concentrations of the drugs tested. The sample containing only buffer was used for the determination of unaffected biosynthesis; the complete inhibition was measured in a sample with 100 μg of NDGA in 1 ml. LTB4 was determined in supernatant using a commercial RIA kit (Amersham).

Wistar-Han rats = assay: Inhibition of carrageenan edema; format: in vivo; conditions: dose 100 mg/kg; for inhibition in vivo at 100 mg/kg: Rattus norvegicus, read-out: CE: inhibition of carrageenan-induced edema, % of inh.
[3] = dose 100 mg/kg, oral, values with mark n: p > 0.05, read-out: Experimental pleuritis, A: volume of exudate in pleural cavity, % of inh.
[4] = dose 100 mg/kg, oral, values with mark n: p > 0.05, read-out: Experimental pleuritis, B: number of cells, % of inh.
[5] = dose 100 mg/kg, oral, values with mark n: p > 0.05, read-out: Experimental pleuritis, C: cellularity in a volume unit, % of inh.
[6] = values with mark n: p > 0.05, read-out: Ear edema, D: edema of ear lobe, % of inh.
[7] = values with mark n: p > 0.05, read-out: Ear edema, E: hyperemia of ear lobe, % of inh.
[8] = dose 100 mg/kg, oral, values with mark n: p > 0.05, 100 mg/kg

Structure (SMILES) | pIC50 (LTB4 receptor) | inhibition at 20 µM (LTB4 receptor; at 20 μM) [%] | pIC50 (LTD4 receptor) | inhibition at 100 µM (LTD4 receptor) [%] | IC50 [2] [µg/mL] | inhibition in vivo at 100 mg/kg (rats; [3]) [%] | inhibition in vivo at 100 mg/kg (rats; [4]) [%] | inhibition in vivo at 100 mg/kg (rats; [5]) [%] | inhibition in vivo at 200 mg/kg (male mice; [6]) [%] | inhibition in vivo at 200 mg/kg (male mice; [7]) [%] | Antiox. effect, % of peroxidation inhibition [1] [%] | Inh. of LTB4 biosynth., % [2] [%] | inhibition in vivo at 100 mg/kg (Wistar-Han rats) [%] | other results
CCCc1c(OCCCCOc2ccc(Sc3ccccc3CC(=O)O)cc2)ccc(C(C)=O)c1O [Compound 26, 2-(4-(4-(4-Acetyl-3-hydroxy-2-propylphenoxy)butoxy)phenylsulfanyl)phenylacetic Acid] | 4.74 | 29 | 4.46 | 63 | – | 20 | 8 | 23 | 17 | 0 | 0 | 97 | 34 | –
NC(=O)N1C(=O)C(=C(O)c2cccs2)c2cc(Cl)ccc21 [Tenidap Na^+, reference compound] | – | 8 | 3.38 | 10 | 1.04 (≈ 3.24 µM) | – | 73 | – | 14 | 76 | – | 100 | 61 | inhibition in vivo at 100 mg/kg (rats; read-out: Experimental pleuritis, A: volume of exudate in pleural cavity, % of inh.): 72%; inhibition in vivo at 100 mg/kg (rats; read-out: Experimental pleuritis, C: cellularity in a volume unit, % of inh.): 6%
CCCc1c(OCCCCOc2ccc(Sc3ccc([N+](=O)[O-])cc3C(=O)O)cc2)ccc(C(C)=O)c1O [Compound 10, 2-(4-(4-(4-Acetyl-3-hydroxy-2-propylphenoxy)butoxy)phenylsulfanyl)-5-nitrobenzoic Acid] | 4.89 | 66 | 4.82 | 89 | – | 14 | 31 | 19 | 20 | 2 | 14 | 100 | 22 | –
COc1cc(C(=O)NS(=O)(=O)c2ccccc2C)ccc1Cc1cn(C)c2ccc(NC(=O)OC3CCCC3)cc12 [Accolate, reference compound] | – | 0 | 7.52 | 94 | 1.12 (≈ 1.95 µM) | – | – | – | – | – | – | 98 | – | –
O=C(O)Cc1ccc(Sc2ccc(OCc3ccc4ccccc4n3)cc2)cc1 [Compound 30, 4-(4-(Quinoline-2-ylmethoxy)phenylsulfanyl)phenylacetic Acid] | 4.69 | 43 | 5.64 | – | 0.004 (≈ 0.00996 µM) | 27 | 30 | 2 | – | – | 14 | 94 | 41 | inhibition at 20 µM (LTD4 receptor): 80%

More lines, main results first:

pIC50 (LTB4 receptor) | inhibition at 20 µM (LTB4 receptor; at 20 μM) [%] | pIC50 (LTD4 receptor) | inhibition at 100 µM (LTD4 receptor) [%] | IC50 [2] [µg/mL] | Structure (SMILES) | inhibition in vivo at 100 mg/kg (rats; [3]) [%] | inhibition in vivo at 100 mg/kg (rats; [4]) [%] | inhibition in vivo at 100 mg/kg (rats; [5]) [%] | inhibition in vivo at 200 mg/kg (male mice; [6]) [%] | inhibition in vivo at 200 mg/kg (male mice; [7]) [%] | Antiox. effect, % of peroxidation inhibition [1] [%] | Inh. of LTB4 biosynth., % [2] [%] | inhibition in vivo at 100 mg/kg (Wistar-Han rats) [%] | other results
– | 25 | 3.92 | 36 | 0.02 (≈ 0.0414 µM) | O=C(O)c1ccccc1Sc1ccc(OCCN2CCN(Cc3ccc(Cl)cc3)CC2)cc1 [Compound 11, Hydrogenmaleate of 2-(4-(2-(1-(4-Chlorobenzyl)piperazin-4-yl)ethoxy)-phenylsulfanyl)benzoic Acid] | – | – | – | 22 | 0 | 10 | 97 | 33 | –
4.77 | 61 | 4.97 | 98 | 3.5 (≈ 7.5 µM) | CCCc1c(OCCOc2ccc(Sc3ccc(C(=O)O)cc3)cc2)ccc(C(C)=O)c1O [Compound 1, 4-(4-(2-(4-Acetyl-3-hydroxy-2-propylphenoxy)ethyloxy)phenylsulfanyl)benzoicAcid] | 8 | 17 | 9 | 13 | 8 | 54 | 100 | 31 | –
4.52 | 38 | 6.00 | 81 | – | O=C(O)Cc1ccccc1Sc1ccc(OCc2ccc3cc(Cl)ccc3n2)cc1 [Compound 32, 2-(4-(6-Chloroquinoline-2-ylmethoxy)phenylsulfanyl)phenylacetic Acid] | – | – | – | – | – | 14 | 62 | – | –
4.83 | – | 6.51 | – | – | O=C(O)c1ccc(Sc2ccc(OCc3ccc4ccccc4n3)cc2)cc1 [Compound 24, Tromethammonium salt of 4-(4-(Quinoline-2-ylmethoxy)phenylsulfanyl)benzoic Acid] | – | – | – | – | – | 13 | 99 | – | Inh. of LTB4 rec. binding, % (LTB4 receptor; at 20 μM): 42%; inhibition at 20 µM (LTD4 receptor): 95%; Experimental pleuritis, A: volume of exudate in pleural cavity, % of inh. (rats; [8]): 23%; Experimental pleuritis, B: number of cells, % of inh. (rats; [8]): 32%; Experimental pleuritis, C: cellularity in a volume unit, % of inh. (rats; [8]): 6%; Inh. of LTB4 biosynth., IC50 [2]: 0.18 µg/mL; CE: inhibition of carrageenan-induced edema, % of inh. (Wistar-Han rats): 27%
– | – | – | 22 | 12.6 (≈ 29.3 µM) | COC(=O)c1ccccc1Sc1cccc(OCCCN2CCN(CCO)CC2)c1 [Compound 15, Bis-hydrogenmaleate of Methyl 2-(3-(3-(1-(2-hydroxyethyl)piperazin-4-yl)-propoxy)phenyl-sulfanyl)benzoate] | 2 | 15 | – | 7 | 3 | 0 | 88 | 9 | –
– | 16 | 4.48 | 86 | 9.5 (≈ 18.6 µM) | O=C(O)c1ccccc1Sc1ccc(OCCCCN2CCN(Cc3ccc(Cl)cc3)CC2)cc1 [Compound 14] | – | – | – | – | – | – | 100 | – | –
